Measurements published in patent publication US20190054109A1, “An antiviral composition and a method for application thereof” (ALLA CHEM, LLC, priority 2017, published 2019).
Read-outs that look alike come from different tables or passages of the source. Marks after values point to notes of the source that are not given here.

Legend:
in vitro = conditions: human, plasma
Protocol: (§1) Evaluation of stability in biological matrix for compositions comprising the prodrug of formula 1.1. Initial compositions comprising the prodrug of formula 1.1 (the tested compounds) were prepared with a concentration of 10 mM in DMSO. From said compositions, 100-fold working solutions were prepared with a concentration of 100 μM in a mixture of acetonitrile: water with a volumetric ratio of 1:1.
The incubation was performed in a Vortemp56 shaking incubator at 37° C. with stirring at a rate of 300 rev/min. […] The samples were then centrifuged, and the supernatant (150 μl) was sampled for analysis […]. The incubation was performed in two replicates, with each sample measured twice.
Samples were analyzed using an HPLC-MS/MS technique developed for each tested prodrug, wherein the chromatographic system 1290 Infinity II (Agilent Technologies) was combined with the tandem mass spectrometer QTRAP5500 (AB Sciex). […] Scanning in a total ion current mode (MS1) allowed us to identify a molecular ion for each compound, and basic product ions were recorded in MS2 mode. […] In quantitative chromatogram processing, the most intensive MRM transition was used for the analyte and the internal standard. […]

physchem = conditions: simulated gi fluid
Protocol: as §1
The tested composition comprising the prodrug of formula 1.1 in a final concentration of 1 μM was incubated in artificial gastric juice (0.2% NaCl in 0.7% v/v HCl) and artificial intestinal juice (0.05M KH2PO4, pH 6.75). The incubation was performed in a Vortemp56 shaking incubator at 37° C. with stirring at a rate of 300 rev/min. […] The samples were then centrifuged, and the supernatant (150 μl) was sampled for analysis […]. The incubation was performed in two replicates, with each sample measured twice.
Samples were analyzed using an HPLC-MS/MS technique developed for each tested prodrug, wherein the chromatographic system 1290 Infinity II (Agilent Technologies) was combined with the tandem mass spectrometer QTRAP5500 (AB Sciex). When developing conditions for mass-spectrometric detection, the solutions of tested compounds in a mixture of acetonitrile-water (1:1) with a concentration of 100 ng/ml were injected directly into the mass spectrometer using a syringe pump with electrospray ionization carried out in a positive ion mode. Scanning in a total ion current mode (MS1) allowed us to identify a molecular ion for each compound, and basic product ions were recorded in MS2 mode. Then, to attain maximum sensitivity, the MS/MS technique was optimized in MRM mode. In quantitative chromatogram processing, the most intensive MRM transition was used for the analyte and the internal standard. Separation was carried out by means of linear gradient elution chromatography on a YMC Triart C18 column (50×2 mm, 1.9 μm) in a mobile phase consisting of 0.1% formic acid in water and 0.1% formic acid in acetonitrile. Tolbutamide (Fluka) was used as the internal standard.
Half-life (T1/2) was found from the kinetics of tested prodrug elimination in an antiviral composition during incubation in a biological matrix. The computations were based on the values of chromatographic peak areas for compounds in test samples normalized to the internal standard signal. From linear dependence of log normalized areas of chromatographic peaks on time, the constant of elimination rate was calculated (k is linear section slope).

[1] = test system: Huh7 human hepatocellular carcinoma cell line; conditions: cited from earlier work
[2] = from Sofia et al. J. Med. Chem. 2010, cited from earlier work
[3] = from Sofia et al. J. Med. Chem. 2010, cited from earlier work; remark: listed apart in the source
[4] = from Sofia et al. J. Med. Chem. 2010, cited from earlier work; remark: listed apart in the source
[5] = test system: six HCV genotypes (gT1-gT6); conditions: cited from earlier work
gT1b NS5B HCV = conditions: cited from earlier work; for EC50: from hcvdruginfo.ca

For C[C@H](N[P@@](=O)(OC[C@H]1O[C@@H](n2ccc(=O)[nH]c2=O)[C@](C)(F)[C@@H]1O)Oc1ccccc1)C(=O)OC1CCC1 [Prodrug 1.2, cyclobutyl (S)-2-((R)-(((2R,3R,4R,5R)-5-(2,4-dioxo-3,4-dihydropyrimidin-1(2H)-yl)-3-hydroxy-4-methyl-4-fluoro-tetrahydrofuran-2-yl)methoxy)-(phenoxy)-phosphorylamino)-propanoate], which half-life at 1 μM (in vitro) is on record?
The half-life at 1 μM was greater than 24 h.

What about the half-life at 1 μM (physchem; T1/2 SGF, artificial gastric juice, 37° C.) of the same molecule?
Its half-life at 1 μM is 12.7 to 15 h.

And the half-life at 1 μM (physchem; pH 6.75)?
The half-life at 1 μM was greater than 24 h.

Which results are given for CC(C)OC(=O)[C@H](C)N[P@](=O)(OC[C@H]1O[C@@H](n2ccc(=O)[nH]c2=O)[C@](C)(F)[C@@H]1O)Oc1ccccc1 [Sovaldi®, Sofosbuvir]?
CC90 ([1]; 10% FBS, from Sofia et al. J. Med. Chem. 2010): > 100 µM; CC50 ([1]; Huh7, Table 2 marks the value as from Sofia et al.): > 100 µM; T1/2 Human plasma [2]: > 24 h; T1/2 Human plasma ([2]; listed as Sovaldi ®): >24* h; T1/2 SGF [3]: 12.7 to 15 h; T1/2 SGF ([3]; listed as Sovaldi ®): 22.0* h; T1/2 SIF [4]: > 24 h; T1/2 SIF ([4]; listed as Sovaldi ®): >24* h; efficiency in clinical trials [5]: high efficiency; EC90 (gT1b NS5B HCV; HCV genotype 1b (gT1b)): 0.59 µM; EC50 (gT1b NS5B HCV; HCV genotype 1b (gT1b)): 0.045 to 0.17 µM; EC90 (gT1b NS5B HCV; gT1b HCV, 10% FBS, from Sofia et al. J. Med. Chem. 2010): 0.52 µM; EC50 (gT1b NS5B HCV; gT1b HCV, 10% FBS): 0.045 to 0.17 µM
